{"source": "the NIST ThermoML archive (doi:10.1021/acs.jced.6b00460)", "conditions": "101.33 kPa, Liquid; for speed of sound: Sing-around technique in a fixed-path interferometer; for mass density: Vibrating tube method", "note": "± gives the expanded uncertainty stated by the source.", "data": [{"smiles": "CCCCCC[n+]1ccccc1.[Cl-]", "note": "[1-hexylpyridinium chloride]", "values": [{"measurement": "speed of sound", "setting": "308.15 K", "result": "1570.7 ± 2.7", "unit": "m/s"}, {"measurement": "mass density", "setting": "308.15 K", "result": "1146.65 ± 2.3", "unit": "kg/m3"}, {"measurement": "speed of sound", "setting": "318.15 K", "result": "1549.2 ± 2.7", "unit": "m/s"}, {"measurement": "mass density", "setting": "318.15 K", "result": "1142.77 ± 2.3", "unit": "kg/m3"}]}, {"smiles": "CCCCCCCC[n+]1ccccc1.[Br-]", "note": "[1-octylpyridinium bromide]", "values": [{"measurement": "speed of sound", "setting": "308.15 K", "result": "1507.1 ± 2.6", "unit": "m/s"}, {"measurement": "mass density", "setting": "308.15 K", "result": "1168.14 ± 2.3", "unit": "kg/m3"}, {"measurement": "speed of sound", "setting": "318.15 K", "result": "1478.3 ± 2.6", "unit": "m/s"}, {"measurement": "mass density", "setting": "318.15 K", "result": "1161.81 ± 2.3", "unit": "kg/m3"}]}, {"smiles": "CCCCCCCC[n+]1ccc(C)cc1.[Cl-]", "note": "[4-methyl-1-octylpyridinium chloride]", "values": [{"measurement": "speed of sound", "setting": "308.15 K", "result": "1445.5 ± 2.6", "unit": "m/s"}, {"measurement": "mass density", "setting": "308.15 K", "result": "1107.79 ± 2.2", "unit": "kg/m3"}, {"measurement": "speed of sound", "setting": "318.15 K", "result": "1411.7 ± 2.6", "unit": "m/s"}, {"measurement": "mass density", "setting": "318.15 K", "result": "1102.01 ± 2.2", "unit": "kg/m3"}]}, {"smiles": "CCCCCC[n+]1ccc(C)cc1.[Br-]", "note": "[1-hexyl-4-methylpyridinium bromide]", "values": [{"measurement": "speed of sound", "setting": "308.15 K", "result": "1589.8 ± 2.7", "unit": "m/s"}, {"measurement": "mass density", "setting": "308.15 K", "result": "1214.46 ± 2.3", "unit": "kg/m3"}, {"measurement": "speed of sound", "setting": "318.15 K", "result": "1558.7 ± 2.7", "unit": "m/s"}, {"measurement": "mass density", "setting": "318.15 K", "result": "1207.88 ± 2.3", "unit": "kg/m3"}]}, {"smiles": "CCCCCCCC[n+]1ccccc1.[Cl-]", "note": "[N-octylpyridinium chloride]", "values": [{"measurement": "speed of sound", "setting": "308.15 K", "result": "1482.6 ± 2.6", "unit": "m/s"}, {"measurement": "mass density", "setting": "308.15 K", "result": "1128.78 ± 2.2", "unit": "kg/m3"}, {"measurement": "speed of sound", "setting": "318.15 K", "result": "1448.6 ± 2.6", "unit": "m/s"}, {"measurement": "mass density", "setting": "318.15 K", "result": "1123.06 ± 2.2", "unit": "kg/m3"}]}, {"smiles": "CCCCCC[n+]1ccccc1.[Br-]", "note": "[1-hexylpyridinium bromide]", "values": [{"measurement": "speed of sound", "setting": "308.15 K", "result": "1592.5 ± 2.7", "unit": "m/s"}, {"measurement": "mass density", "setting": "308.15 K", "result": "1235.72 ± 2.4", "unit": "kg/m3"}, {"measurement": "speed of sound", "setting": "318.15 K", "result": "1557.2 ± 2.7", "unit": "m/s"}, {"measurement": "mass density", "setting": "318.15 K", "result": "1229.23 ± 2.3", "unit": "kg/m3"}]}]}
